Data published in ChEMBL document CHEMBL3046720, “Molecular properties of fatty acids related to PPAR binding and metabolic diseases” (Med Chem Res, 2013).

Assays:
[1] = biological target: T1, Peroxisome proliferator-activated receptor delta (Homo sapiens, UniProt Q03181); test: Displacement of [3H]GW2433 from Homo sapiens (human) PPARdelta receptor by scintillation proximity assay
T1 sequence (Q03181 whole entry): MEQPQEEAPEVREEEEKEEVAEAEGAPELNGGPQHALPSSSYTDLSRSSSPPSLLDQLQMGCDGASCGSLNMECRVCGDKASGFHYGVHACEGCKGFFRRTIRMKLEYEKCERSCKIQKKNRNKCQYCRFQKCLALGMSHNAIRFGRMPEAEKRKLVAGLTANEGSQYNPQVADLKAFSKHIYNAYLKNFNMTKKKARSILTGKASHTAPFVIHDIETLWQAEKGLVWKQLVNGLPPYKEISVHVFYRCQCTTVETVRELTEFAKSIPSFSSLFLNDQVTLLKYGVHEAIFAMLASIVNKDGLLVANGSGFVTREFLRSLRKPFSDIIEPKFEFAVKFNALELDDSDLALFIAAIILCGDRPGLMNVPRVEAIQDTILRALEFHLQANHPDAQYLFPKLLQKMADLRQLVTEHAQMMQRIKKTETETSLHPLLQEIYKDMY

[2] = biological target: T2, Peroxisome proliferator-activated receptor alpha (Homo sapiens, UniProt Q07869); test: Displacement of [3H]GW2331 from Homo sapiens (human) PPARalpha receptor by scintillation proximity assay
T2 sequence (Q07869 whole entry): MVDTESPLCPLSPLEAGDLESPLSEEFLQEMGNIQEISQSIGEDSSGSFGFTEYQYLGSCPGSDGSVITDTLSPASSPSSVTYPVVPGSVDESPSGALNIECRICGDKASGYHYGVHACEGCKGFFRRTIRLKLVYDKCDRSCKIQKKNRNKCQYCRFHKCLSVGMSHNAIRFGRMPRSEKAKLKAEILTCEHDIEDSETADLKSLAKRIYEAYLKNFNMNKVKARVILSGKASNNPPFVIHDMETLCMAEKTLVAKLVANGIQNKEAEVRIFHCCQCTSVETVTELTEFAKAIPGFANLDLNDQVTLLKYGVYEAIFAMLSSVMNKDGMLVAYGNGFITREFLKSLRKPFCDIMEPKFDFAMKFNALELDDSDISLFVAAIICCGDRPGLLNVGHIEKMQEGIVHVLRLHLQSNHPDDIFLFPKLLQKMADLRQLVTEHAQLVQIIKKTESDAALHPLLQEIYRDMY

[3] = biological target: T3, Peroxisome proliferator-activated receptor gamma (Homo sapiens, UniProt P37231); test: Displacement of [3H]BRL49653 from Homo sapiens (human) PPARgamma receptor by scintillation proximity assay
T3 sequence (P37231 whole entry): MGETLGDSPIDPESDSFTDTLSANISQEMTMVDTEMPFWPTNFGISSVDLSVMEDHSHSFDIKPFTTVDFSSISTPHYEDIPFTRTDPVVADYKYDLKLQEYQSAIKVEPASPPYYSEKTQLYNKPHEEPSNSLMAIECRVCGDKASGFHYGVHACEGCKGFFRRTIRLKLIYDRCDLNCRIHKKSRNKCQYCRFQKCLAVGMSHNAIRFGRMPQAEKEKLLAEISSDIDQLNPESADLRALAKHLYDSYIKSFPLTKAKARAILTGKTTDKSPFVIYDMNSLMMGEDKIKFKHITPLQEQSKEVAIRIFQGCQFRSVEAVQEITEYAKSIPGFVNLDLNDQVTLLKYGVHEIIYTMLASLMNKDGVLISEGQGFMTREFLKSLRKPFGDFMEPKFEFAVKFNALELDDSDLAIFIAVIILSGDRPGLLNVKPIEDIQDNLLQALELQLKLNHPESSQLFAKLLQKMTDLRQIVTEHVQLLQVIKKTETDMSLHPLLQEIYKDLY

Row | SMILES | IC50 [1] [µM] | IC50 [2] [µM] | IC50 [3] [µM]
1 | CCCCCCCC/C=C\CCCCCCCCCCCC(=O)O [ERUCIC ACID] | > 30 | > 30 | 
2 | CC/C=C\C/C=C\C/C=C\C/C=C\C/C=C\CCCC(=O)O [ICOSAPENT] | 4 |  | 1.6
3 | CCCCCCCCCCCCCCCCCCCCCC(=O)O [BEHENIC ACID] | > 30 | > 30 | 
4 | CCCCC/C=C\C/C=C\C/C=C\CCCCC(=O)O [GAMOLENIC ACID] | 0.75 |  | 
5 | CCCCC/C=C\C/C=C\C/C=C\CCCCCCC(=O)O [DIHOMO-GAMMA-LINOLENIC ACID] | 4.3 |  | 2.4
6 | CC/C=C\C/C=C\C/C=C\CCCCCCCC(=O)O [LINOLENIC ACID] | 16 |  | 
7 | CCCCC/C=C\C/C=C\C/C=C\C/C=C\CCCC(=O)O [ARACHIDONIC ACID] | 3.1 |  | 1.6

Further lines, results first:

Row | IC50 [1] [µM] | IC50 [2] [µM] | IC50 [3] [µM] | SMILES
8 | > 30 | > 30 |  | CCCCCCCCCCCCCCCCCCCC(=O)O [ARACHIDIC ACID]
9 |  | 5.4 | 21 | CCCCCCCCCCCCCC(=O)O [MYRISTIC ACID]
10 | 5.3 |  | 4.1 | CCCCCCCC/C=C\CCCCCCCC(=O)O [OLEIC ACID]
11 | > 30 | > 30 |  | CCCCCCCCCCCC(=O)O [DODECANOATE]
12 |  | 1.1 |  | CCCCCCCCCCCCCCCCCC(=O)O [STEARIC ACID]
13 | 9.6 |  | 6.4 | CCCCCC/C=C\CCCCCCCC(=O)O [PALMITOLEIC ACID]
14 |  | 1.5 |  | CCCCCCCCCCCCCCCC(=O)O [PALMITIC ACID]
15 | 10 |  | 6.2 | CCCCC/C=C\C/C=C\CCCCCCCC(=O)O [LINOLEIC ACID]
16 | > 30 | > 30 | 30 | CCCCCCCCCC(=O)O [DECANOIC ACID]
